Here are results for three compounds from patent publication EP1891957A1 (Sloan-Kettering Institute for Cancer Research, priority 1996, dated 1998).

As a reminder, the LD50 is the dose expected to kill half of the subjects tested. Usually IC50 stands for the concentration that inhibits the measured activity by half. A low value points to inhibition by little substance.

Values joined by “and” are separate entries in the source; they are usually repeats but may differ in a detail not shown here. Equal entries are not always repeated. Where two headings read alike, the source gives them in different places.

Series [1] can be described thus: in vivo. The following applies: dog, iv.
Series [2] in a line: in vivo. The following applies: rat, iv.
The conditions of series [3]: dogs, 3 mg/kg i.v.
Another series relates to human A549 lung cancer. As to conditions: A549 xenograft, schedule and doses as Example 2; for Average Tumor Diameter (mm): nude mice.
Series [4] deals with human MX-1 mammary carcinoma. Briefly: Xenografts of human MX-1 mammary carcinoma in nude mice. As to conditions: MX-1 xenograft; for Average Tumor Diameter (mm): nude mice, once a day for five days starting three days after implantation, 10-propargyl-10dAM 3 mg/kg, MTX 2 mg/kg, EDX 1.5 mg/kg, measured 14 days after start of treatment; for Complete Regressions: mice with no measurable tumor 14 days after start of treatment / mice treated; for Complete Regressions / Cures: same doses; for Cures: tumor free mice three weeks after cessation of therapy / mice treated. For orientation: A xenograft is tissue or cells of one species grown in another, often human tumour cells in immunodeficient mice.

The next series has as its system MDA468. Briefly: Cytotoxicity, 3 hour pulse-exposure, MDA468. As to conditions: Homo sapiens.
The subject of the next series is SK-BRIII. Briefly: Cytotoxicity, 3 hour pulse-exposure, SK-BRIII. The following applies: Homo sapiens.
A further series concerns human LX-1 lung cancer. As to conditions: LX-1 xenograft, schedule and doses as Example 2; for Average Tumor Diameter (mm): nude mice.
The next series has as its system SKLC-16. Put plainly: Cytotoxicity, 3 hour pulse-exposure, SKLC-16. As to conditions: Homo sapiens.
In a further series the test system is ZR-75-1. Briefly: Cytotoxicity, 3 hour pulse-exposure, ZR-75-1. As to conditions: Homo sapiens, ZR-75-1, 3 h.

From the text for human A549 lung cancer: Example 2 was repeated using xenografts of human A549 lung cancer in nude mice.

Regarding `C#CCC(Cc1cnc2nc(N)nc(N)c2n1)c1ccc(C(=O)N[C@@H](CCC(=O)O)C(=O)O)cc1` (stereo partly drawn) [10-propargyl-10dAM, 10-Propargyl-10-deazaaminopterin], the mice died entry in the series with B6D2F1 mice (400 mg/kg i.p. QWX3, days 19, 20, 23 and 24) is given as “four out of five”; with B6D2F1 mice (600 mg/kg i.p. QWX3, days 9, 18, 19 and 21), “four out of five”. The figures for the LD50 in the series “in vivo [1]” and in “in vivo [2]” were roughly 8 mg/kg and roughly 110 mg/kg, respectively. Further, the animals died entry in the series on CD rats (100 mg/kg i.v. QWX3, by day 23) is given as “one out of the five”. Besides, the rats died entry in the series with CD rats (150 mg/kg i.v. QWX3, days 18, 20 and 23) is on record as “three out of the five”; in the series on CD rats (200 mg/kg i.v. QWX3, days 12, 14, 15, 20 and 20) it was “all five”; in the series with CD rats (300 mg/kg i.v. QWX3, days 11, 11, 12, 12 and 14) it was “all five”. Besides, the LD10 entry with CD rats (i.v. QWX3, conservative estimate, median-effect plot) is recorded as “about 75 mg/kg”. Further, the figures for the “metabolite (retention time 6.3 min) as part of the total urinary 10-propargyl-10dAM” value in series [3] (urine at 1 hr) and in series [3] (urine at 4 hr) were less than 0.31% and less than 3.5%, respectively.

`CCC(Cc1cnc2nc(N)nc(N)c2n1)c1ccc(C(=O)N[C@@H](CCC(=O)O)C(=O)O)cc1` (stereo partly drawn) [EDX, edatrexate]: the results for the “Average Tumor Diameter (mm)” value (in the series on human A549 lung cancer; in series [4]; in the series on human LX-1 lung cancer) were 6.8 ± 2 mm, 2.2 ± 1.1 mm and 4.3 ± 2 mm, respectively. Also, the “Complete Regressions” value is on record as 0/5 in the series on human A549 lung cancer, 6/20 in [4] and 3/10 in the series with human LX-1 lung cancer. Further, the Cures with human A549 lung cancer is reported as 0/5; in series [4], 2/20; with human LX-1 lung cancer it was 1/10. In addition, the IC50 in the series with MDA468 stood at 380 ± 50 nM; in the series on SK-BRIII, 990 ± 150 nM; in the series on SKLC-16, 260 ± 30 nM; in the series on ZR-75-1, 860 ± 100 nM.

For the compound `CN(Cc1cnc2nc(N)nc(N)c2n1)c1ccc(C(=O)N[C@@H](CCC(=O)O)C(=O)O)cc1` [MTX, methotrexate], in the series with human A549 lung cancer, the “Average Tumor Diameter (mm)” value was found to be 8.3 ± 2 mm, the “Complete Regressions” value is 0/5 and the Cures is reported as 0/5. In series [4], the “Average Tumor Diameter (mm)” value is listed as 7.6 ± 0.8 mm; the “Complete Regressions” value was “no regressions and 0/10”; the Cures is recorded as 0/10. Also, in the series with human LX-1 lung cancer, the “Average Tumor Diameter (mm)” value turned out to be 9.2 ± 2 mm, the “Complete Regressions” value is reported as 0/10 and the Cures is on record as 0/10.
